Source: patent US20170275270A1, “BENZYL SUBSTITUTED INDAZOLES” (Bayer Pharma Aktiengesellschaft, priority 2014, published 2017)
Where two headings read alike, the source gives them in different places.

Key:
[1] = system: HeLa human cervical tumor cells; assay: Proliferation assay (HeLa+Paclitaxel); conditions: read-out: Biological Assay 3: HeLa + Paclitaxel IC50, 3 nM paclitaxel, crystal violet;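 note: compounds at 0.001-10 µM added 4 h after paclitaxel, 92 h exposure, absorbance normalized to zero-point plate (0%) and untreated cells (100%), IC50 from 4-parameter fit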
Protocol: Proliferation Assay (HeLa+Paclitaxel):
Cultivated HeLa human cervical tumor cells (DSMZ ACC-57) were plated at a density of 3000 cells/well in a 96-well multititer plate in 200 μL of growth medium supplemented 10% fetal calf serum. After 24 hours, the cells of one plate (zero-point plate) were stained with crystal violet (see below). The medium of the other plates was supplemented with 3 nM of paclitaxel (Sigma-Aldrich) and the cells were incubated at 37° C. After 4 hours the test substances were added in various concentrations (0 μM, as well as in the range of 0.001-10 μM; the final concentration of the solvent dimethyl sulfoxide was adjusted to 0.1%) using a Hewlett-Packard HP D300 Digital Dispenser. The cells were incubated for another 92 hours at 37° C. in the presence of test substances. Cell proliferation was determined by staining the cells with crystal violet: the cells were fixed by adding 20 μL/measuring point of an 11% glutaric aldehyde solution for 15 minutes at room temperature. After three washing cycles of the fixed cells with water, the plates were dried at room temperature. The cells were stained by adding 100 μL/measuring point of a 0.1% crystal violet solution (pH 3.0). After three washing cycles of the stained cells with water, the plates were dried at room temperature. The dye was dissolved by adding 100 μL/measuring point of a 10% acetic acid solution. […] The change of cell number, in percent, was calculated by normalization of the measured values to the absorbtion values of the zero-point plate (=0%) and the absorbtion of the untreated (0 μm) cells (=100%). The IC50 values were determined by means of a 4 parameter fit.

[2] = system: HeLa; assay: Proliferation assay (HeLa cell line); conditions: Homo sapiens, 96 h, read-out: Biological Assay 2: Proliferation assay (HeLa cell line) median IC50;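 note: crystal violet staining of cell number, scaled between a plate stained before dosing (0%) and cells left untreated (100%), compounds tested at 0.001-10 µM, IC50 via 4-parameter fit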
[3] = target: T1, catalytic domain of human Bub1 (amino acids 704-1085) (Homo sapiens, UniProt O43683); assay: Bub1 kinase assay (TR-FRET); type: biochemical
T1 construct: catalytic domain of human Bub1 (amino acids 704-1085); His6 (N); made in house; host or cells: Hi5 insect cells
T1 sequence (O43683 704-1085): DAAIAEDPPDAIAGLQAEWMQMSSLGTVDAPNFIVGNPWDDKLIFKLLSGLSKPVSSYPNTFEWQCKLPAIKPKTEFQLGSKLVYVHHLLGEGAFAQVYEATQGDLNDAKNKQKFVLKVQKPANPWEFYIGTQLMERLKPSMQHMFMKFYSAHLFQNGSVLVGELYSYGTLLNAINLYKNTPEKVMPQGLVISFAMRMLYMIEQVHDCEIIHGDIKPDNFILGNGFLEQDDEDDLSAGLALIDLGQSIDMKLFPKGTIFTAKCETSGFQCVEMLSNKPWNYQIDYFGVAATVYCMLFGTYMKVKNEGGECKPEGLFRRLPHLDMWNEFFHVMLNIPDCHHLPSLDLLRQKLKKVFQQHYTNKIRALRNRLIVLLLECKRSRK
Summary of the method: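 Compounds from 2 mM DMSO stocks, serially diluted 1:3.4, incubated with enzyme at 22° C for 60 min. Stopped with EDTA, then 1 h with streptavidin-XL665, anti-phosphoserine antibody and Eu-labelled anti-mouse IgG. Phosphorylated biotin-peptide read by TR-FRET; IC50 by 4-parameter logistic fit.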

[4] = target: Bub1 (Homo sapiens, UniProt O43683); assay: Formation-Assay: phosphorylation status of histone 2A by inhibition of kinase activity of Bub1; type: cell-based; conditions: Biological Assay 4.1: H2A Formation IC50, co-treatment with Nocodazole 1 μg/ml, 16 h
Bub1, sequence (O43683 whole entry): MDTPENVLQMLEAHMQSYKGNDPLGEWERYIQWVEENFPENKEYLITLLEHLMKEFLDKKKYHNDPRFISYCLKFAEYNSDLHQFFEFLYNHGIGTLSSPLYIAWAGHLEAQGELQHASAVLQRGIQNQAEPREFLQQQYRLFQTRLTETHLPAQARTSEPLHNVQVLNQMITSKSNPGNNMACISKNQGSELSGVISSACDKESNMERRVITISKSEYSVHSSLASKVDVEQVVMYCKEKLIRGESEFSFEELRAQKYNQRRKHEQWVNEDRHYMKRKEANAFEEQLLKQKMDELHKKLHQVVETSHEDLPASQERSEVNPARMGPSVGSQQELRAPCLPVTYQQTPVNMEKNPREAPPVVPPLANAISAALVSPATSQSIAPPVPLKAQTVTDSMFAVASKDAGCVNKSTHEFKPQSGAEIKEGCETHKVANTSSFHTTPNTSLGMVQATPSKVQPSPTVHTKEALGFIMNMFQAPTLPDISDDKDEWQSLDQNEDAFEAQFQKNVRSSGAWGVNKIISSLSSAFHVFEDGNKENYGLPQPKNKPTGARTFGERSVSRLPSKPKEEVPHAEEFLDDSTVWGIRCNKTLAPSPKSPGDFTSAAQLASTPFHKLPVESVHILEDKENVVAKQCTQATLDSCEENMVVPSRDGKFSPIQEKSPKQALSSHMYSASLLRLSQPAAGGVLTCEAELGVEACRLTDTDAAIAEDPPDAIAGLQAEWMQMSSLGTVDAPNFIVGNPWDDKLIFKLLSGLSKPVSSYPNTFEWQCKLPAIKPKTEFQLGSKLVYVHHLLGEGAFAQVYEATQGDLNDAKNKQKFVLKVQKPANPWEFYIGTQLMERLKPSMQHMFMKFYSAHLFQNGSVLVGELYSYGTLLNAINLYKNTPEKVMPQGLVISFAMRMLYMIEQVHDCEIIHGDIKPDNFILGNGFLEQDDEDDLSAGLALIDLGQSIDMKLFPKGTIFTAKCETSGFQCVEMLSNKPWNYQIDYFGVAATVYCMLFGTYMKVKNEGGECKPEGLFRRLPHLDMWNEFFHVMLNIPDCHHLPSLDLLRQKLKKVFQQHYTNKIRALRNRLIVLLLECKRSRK
Summary of the method: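 Cells co-treated 16 h with Nocodazole (1 μg/ml) and compound (3 nM–10 μM), then fixed and immunostained for phospho-H2A, read by infrared imaging (800 nm) normalised to cell stain (700 nm). Nocodazole-only set as 100%, untreated cells as 0%.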

[5] = 10 μM ATP, read-out: Biological Assay 1: Bub1 kinase assay median IC50
[6] = Biological Assay 1: Bub1 kinase assay median IC50, 10 μM ATP

For `CCOc1cc(F)c(Cn2nc(-c3nc4c(c(Nc5cc(C)ncc5C)n3)CC(C)(C)C4)c3ccccc32)c(F)c1` [Example 2-12-59, N-(2,5-dimethylpyridin-4-yl)-2-[1-(4-ethoxy-2,6-difluorobenzyl)-1H-indazol-3-yl]-6,6-dimethyl-6,7-dihydro-5H-cyclopenta[d]pyrimidin-4-amine], the IC50 [1] was 62 nM, the IC50 [2] was greater than 10000 nM and the IC50 [3, 5] was 22 nM. It also gave an IC50 [4] of 120 nM.
For `CCOc1cc(F)c(Cn2nc(-c3nc4c(c(Nc5ccnc(C)n5)n3)CC(C)(C)C4)c3ccccc32)c(F)c1` [Example 2-12-60, 2-[1-(4-ethoxy-2,6-difluorobenzyl)-1H-indazol-3-yl]-6,6-dimethyl-N-(2-methylpyrimidin-4-yl)-6,7-dihydro-5H-cyclopenta[d]pyrimidin-4-amine], the IC50 [1] was 86 nM, the IC50 [2] was greater than 10000 nM and the IC50 [3, 6] was 38 nM. The IC50 [4] was 3.9 nM.
In the case of `COCCOc1cc(F)c(Cn2nc(-c3nc4c(c(Nc5ccnc(C)n5)n3)CC(C)(C)C4)c3ccccc32)c(F)c1` [Example 2-12-61, 2-{1-[2,6-difluoro-4-(2-methoxyethoxy)benzyl]-1H-indazol-3-yl}-6,6-dimethyl-N-(2-methylpyrimidin-4-yl)-6,7-dihydro-5H-cyclopenta[d]pyrimidin-4-amine], the IC50 [1] is reported as 130 nM, the IC50 [2] is reported as greater than 10000 nM and the IC50 [3, 6] is reported as 74 nM. It also gave an IC50 [4] of 2400 nM.
`CCOc1cc(F)c(Cn2nc(-c3nc4c(c(Nc5ccnc(NC(C)=O)c5)n3)CC(C)(C)C4)c3ccccc32)c(F)c1` [Example 2-12-65, N-[4-({2-[1-(4-ethoxy-2,6-difluorobenzyl)-1H-indazol-3-yl]-6,6-dimethyl-6,7-dihydro-5H-cyclopenta[d]pyrimidin-4-yl}amino)pyridin-2-yl]acetamide] gave an IC50 [1] of 110 nM, an IC50 [2] greater than 10000 nM and an IC50 [3, 6] of 22 nM. The IC50 [4] was 3.3 nM.
For `CCOc1cc(F)c(Cn2nc(-c3nc4c(c(Nc5ccnc(C)n5)n3)CC(C)(C)CC4)c3ccccc32)c(F)c1` [Example 2-12-66, 2-[1-(4-ethoxy-2,6-difluorobenzyl)-1H-indazol-3-yl]-6,6-dimethyl-N-(2-methylpyrimidin-4-yl)-5,6,7,8-tetrahydroquinazolin-4-amine], the IC50 [1] was 100 nM, the IC50 [2] was greater than 10000 nM and the IC50 [3, 5] was 98 nM. It also gave an IC50 [4] of 22 nM.
`CCOc1cc(F)c(Cn2nc(-c3nc4c(c(Nc5ccncc5OC)n3)CC(C)(C)CC4)c3ccccc32)c(F)c1` [Example 2-12-67, 2-[1-(4-ethoxy-2,6-difluorobenzyl)-1H-indazol-3-yl]-N-(3-methoxypyridin-4-yl)-6,6-dimethyl-5,6,7,8-tetrahydroquinazolin-4-amine] showed an IC50 [1] of 150 nM, an IC50 [2] of 4400 nM and an IC50 [3, 5] of 66 nM. It also gave an IC50 [4] of 22 nM.
Work on `CCOc1cc(F)c(Cn2nc(-c3nc4c(c(Nc5cc(C)ncc5C)n3)CC(C)(C)CC4)c3ccccc32)c(F)c1` [Example 2-12-68, N-(2,5-dimethylpyridin-4-yl)-2-[1-(4-ethoxy-2,6-difluorobenzyl)-1H-indazol-3-yl]-6,6-dimethyl-5,6,7,8-tetrahydroquinazolin-4-amine] yielded an IC50 [1] of 78 nM, an IC50 [2] of 2700 nM and an IC50 [3, 5] of 35 nM. The IC50 [4] was 3.8 nM.
`CCOc1cc(F)c(Cn2nc(-c3nc(Nc4ccncc4OC)cc(C(F)(F)F)n3)c3ccccc32)c(F)c1` [Example 2-12-81, 2-[1-(4-ethoxy-2,6-difluorobenzyl)-1H-indazol-3-yl]-N-(3-methoxypyridin-4-yl)-6-(trifluoromethyl)pyr-imidin-4-amine] was tested, and the IC50 [1] was 220 nM, the IC50 [2] was 1600 nM and the IC50 [3, 5] was 19 nM. For the same compound, the IC50 [4] was 13 nM.
`CCOc1cc(F)c(Cn2nc(-c3nc(Nc4ccnc(C)n4)cc(C(F)(F)F)n3)c3ccccc32)c(F)c1` [Example 2-12-83, 2-[1-(4-ethoxy-2,6-difluorobenzyl)-1H-indazol-3-yl]-N-(2-methylpyrimidin-4-yl)-6-(trifluoromethyl)pyr-imidin-4-amine] was tested, and the IC50 [1] was 350 nM, the IC50 [2] was greater than 10000 nM and the IC50 [3, 6] was greater than 20000 nM. For the same compound, the IC50 [4] was 31 nM.
Work on `CCOc1cc(F)c(Cn2nc(-c3ncc(CCCO)c(Nc4ccncc4)n3)c3ccccc32)c(F)c1` [Example 2-13-1, 3-{2-[1-(4-ethoxy-2,6-difluorobenzyl)-1H-indazol-3-yl]-4-(pyridin-4-ylamino)pyrimidin-5-yl}propan-1-ol] yielded an IC50 [1] of 370 nM, an IC50 [2] of 3700 nM and an IC50 [3, 6] of 5.3 nM. For the same compound, the IC50 [4] was 8.2 nM.
In the case of `CCOc1cc(F)c(Cn2nc(-c3nc4c(c(Nc5ccncc5F)n3)CCC4)c3ccccc32)c(F)c1` [Example 2-14-1, 2-[1-(4-ethoxy-2,6-difluorobenzyl)-1H-indazol-3-yl]-N-(3-fluoropyridin-4-yl)-6,7-dihydro-5H-cyclopenta[d]pyrimidin-4-amine], the IC50 [1] is reported as 680 nM, the IC50 [2] is reported as 10000 nM and the IC50 [3, 5] is reported as 9.6 nM. It also gave an IC50 [4] of 2.8 nM.
`CCOc1cc(F)c(Cn2nc(-c3nc4c(c(Nc5ccncc5C)n3)CCC4)c3ccccc32)c(F)c1` [Example 2-14-2, 2-[1-(4-ethoxy-2,6-difluorobenzyl)-1H-indazol-3-yl]-N-(3-methylpyridin-4-yl)-6,7-dihydro-5H-cyclopenta[d]pyrimidin-4-amine] was tested, and the IC50 [1] was 120 nM, the IC50 [2] was 1100 nM and the IC50 [3, 5] was 8 nM. It also gave an IC50 [4] of 1.6 nM.
In the case of `CCOc1cc(F)c(Cn2nc(-c3nc4c(c(Nc5ccncc5OC)n3)CCC4)c3ccccc32)c(F)c1` [Example 2-14-4, 2-[1-(4-ethoxy-2,6-difluorobenzyl)-1H-indazol-3-yl]-N-(3-methoxypyridin-4-yl)-6,7-dihydro-5H-cyclopenta[d]pyrimidin-4-amine], the IC50 [1] is reported as 120 nM, the IC50 [2] is reported as 940 nM and the IC50 [3, 5] is reported as 2.9 nM. The IC50 [4] was 13 nM.
Compound `CCOc1cc(F)c(Cn2nc(-c3nc4c(c(Nc5ccnnc5)n3)CCC4)c3ccccc32)c(F)c1` [Example 2-14-5, 2-[1-(4-ethoxy-2,6-difluorobenzyl)-1H-indazol-3-yl]-N-(pyridazin-4-yl)-6,7-dihydro-5H-cyclopenta[d]pyrimidin-4-amine] has an IC50 [1] of 540 nM, an IC50 [2] of 3600 nM and an IC50 [3, 5] of 16 nM. It also gave an IC50 [4] of 2.7 nM.
`CCOc1cc(F)c(Cn2nc(-c3nc4c(c(Nc5ccncn5)n3)CCC4)c3ccccc32)c(F)c1` [Example 2-14-6, 2-[1-(4-ethoxy-2,6-difluorobenzyl)-1H-indazol-3-yl]-N-(pyrimidin-4-yl)-6,7-dihydro-5H-cyclopenta[d]pyrimidin-4-amine] showed an IC50 [1] of 270 nM, an IC50 [2] of 3600 nM and an IC50 [3, 5] of 37 nM. The IC50 [4] was 2.7 nM.
With `CCOc1cc(F)c(Cn2nc(-c3nc4c(c(Nc5ccnc(C)c5)n3)CN(CC)CC4)c3ccccc32)c(F)c1` [Example 2-15-2, 2-[1-(4-ethoxy-2,6-difluorobenzyl)-1H-indazol-3-yl]-6-ethyl-N-(2-methylpyridin-4-yl)-5,6,7,8-tetrahydropyrido[4,3-d]pyrimidin-4-amine] the IC50 [1] was 45 nM, the IC50 [2] was greater than 10000 nM and the IC50 [3, 6] was 47 nM. For the same compound, the IC50 [4] was 39 nM.
For `CCOc1cc(F)c(Cn2nc(-c3ncc(CCNCC(F)(F)F)c(Nc4ccncc4)n3)c3ccccc32)c(F)c1` [Example 2-16-1, 2-[1-(4-ethoxy-2,6-difluorobenzyl)-1H-indazol-3-yl]-N-(pyridin-4-yl)-5-{2-[(2,2,2-trifluoroethyl)amino]ethyl}pyrimidin-4-amine], the IC50 [1] was 200 nM, the IC50 [2] was 3000 nM and the IC50 [3, 6] was 18 nM. For the same compound, the IC50 [4] was 18 nM.
For `CCOc1cc(F)c(Cn2nc(-c3ncc(C4CCNCC4)c(Nc4ccncc4)n3)c3ccccc32)c(F)c1` [Example 2-17-1, 2-[1-(4-ethoxy-2,6-difluorobenzyl)-1H-indazol-3-yl]-5-(piperidin-4-yl)-N-(pyridin-4-yl)pyrimidin-4-amine], the IC50 [1] was 170 nM, the IC50 [2] was 1100 nM and the IC50 [3, 6] was 6.1 nM. It also gave an IC50 [4] of 12 nM.
`CCOc1cc(F)c(Cn2nc(-c3ncc(C4CCNCC4)c(Nc4ccnc(NC(C)=O)c4)n3)c3ccccc32)c(F)c1` [Example 2-17-2, N-[4-({2-[1-(4-ethoxy-2,6-difluorobenzyl)-1H-indazol-3-yl]-5-(piperidin-4-yl)pyrimidin-4-yl}amino)pyridin-2-yl]acetamide] showed an IC50 [1] of 190 nM, an IC50 [2] of 3100 nM and an IC50 [3, 6] of 8.6 nM. The IC50 [4] was 4.8 nM.
For `CCOc1cc(F)c(Cn2nc(-c3nc4c(c(Nc5ccncc5)n3)CCNC4)c3ccccc32)c(F)c1` [Example 2-18-1, 2-[1-(4-ethoxy-2,6-difluorobenzyl)-1H-indazol-3-yl]-N-(pyridin-4-yl)-5,6,7,8-tetrahydropyrido[3,4-d]pyrimidin-4-amine], the IC50 [1] was 160 nM, the IC50 [2] was 1700 nM and the IC50 [3, 6] was 6.1 nM. The IC50 [4] was 20 nM.
`CCOc1cc(F)c(Cn2nc(-c3nc4c(c(Nc5ccncc5)n3)CSC4)c3ccccc32)c(F)c1` [Example 2-19-1, 2-[1-(4-ethoxy-2,6-difluorobenzyl)-1H-indazol-3-yl]-N-(pyridin-4-yl)-5,7-dihydrothieno[3,4-d]pyrimidin-4-amine] gave an IC50 [1] of 350 nM, an IC50 [2] of 1200 nM and an IC50 [3, 5] of 14 nM. The IC50 [4] was 350 nM.
Compound `CCOc1cc(F)c(Cn2nc(-c3nc4c(c(Nc5ccnc(NC(C)=O)c5)n3)CSC4)c3ccccc32)c(F)c1` [Example 2-19-3, N-[4-({2-[1-(4-ethoxy-2,6-difluorobenzyl)-1H-indazol-3-yl]-5,7-dihydrothieno[3,4-d]pyrimidin-4-yl}amino)pyridin-2-yl]acetamide] has an IC50 [1] of 610 nM, an IC50 [2] of 2100 nM and an IC50 [3, 6] of 8.9 nM. It also gave an IC50 [4] of 340 nM.
